# Data published in PMC7194293, “Living on the Edge: Physiological and Kinetic Trade-Offs Shape Thermal Tolerance in Intertidal Crabs From Tropical to Sub-Antarctic South America” (Frontiers in Physiology, 2020).
# Read-outs that look alike come from different tables or passages of the source.
# Key:
# Assay in all cases: NADH oxidation at […] nm, muscle homogenate supernatant
# [1] = system: T1, LDH (muscle lactate dehydrogenase); type: biochemical, Ucides cordatus; details: 150 uM NADH, 80 mM imidazole-HCl pH 6.9, 26 °C (FRT); read-out: Km^Pyr / (mM) / FRT
# T1 construct: native, not purified; supernatant of abdominal muscle homogenate, pooled crabs, Pernambuco, Brazil
# [2] = system: T2, LDH (muscle lactate dehydrogenase); type: biochemical, Halicarcinus planatus; details: 150 uM NADH, 80 mM imidazole-HCl pH 6.9, 9 °C (FRT); read-out: Km^Pyr / (mM) / FRT
# T2 construct: native, not purified; supernatant of abdominal muscle homogenate, pooled crabs, Ushuaia, Argentina
# [3] = system: T1, LDH (muscle lactate dehydrogenase); type: biochemical, Cardisoma guanhumi; details: 150 uM NADH, 80 mM imidazole-HCl pH 6.9, 26 °C (FRT); read-out: Km^Pyr / (mM) / FRT
# [4] = system: T3, LDH (muscle lactate dehydrogenase); type: biochemical, Armases rubripes; details: 150 uM NADH, 80 mM imidazole-HCl pH 6.9, 15 °C (FRT); read-out: Km^Pyr / (mM) / FRT
# T3 construct: native, not purified; supernatant of abdominal muscle homogenate, pooled crabs, Rio Grande, Brazil
# [5] = system: T1, LDH (muscle lactate dehydrogenase); type: biochemical, Pachygrapsus transversus; details: 150 uM NADH, 80 mM imidazole-HCl pH 6.9, 26 °C (FRT); read-out: Km^Pyr / (mM) / FRT
# [6] = system: T3, LDH (muscle lactate dehydrogenase); type: biochemical, Neohelice granulata; details: 150 uM NADH, 80 mM imidazole-HCl pH 6.9, 15 °C (FRT); read-out: Km^Pyr / (mM) / FRT
# [7] = system: T1, LDH (muscle lactate dehydrogenase); type: biochemical, Ocypode quadrata; details: 150 uM NADH, 80 mM imidazole-HCl pH 6.9, 26 °C (FRT); read-out: Km^Pyr / (mM) / FRT
# [8] = system: T3, LDH (muscle lactate dehydrogenase); type: biochemical, Leptuca uruguayensis; details: 150 uM NADH, 80 mM imidazole-HCl pH 6.9, 15 °C (FRT); read-out: Km^Pyr / (mM) / FRT
# [9] = system: T1, LDH (muscle lactate dehydrogenase); type: biochemical, Goniopsis cruentata; details: 150 uM NADH, 80 mM imidazole-HCl pH 6.9, 26 °C (FRT); read-out: Km^Pyr / (mM) / FRT
# [10] = system: T1, LDH (muscle lactate dehydrogenase); type: biochemical, Uca maracoani; details: 150 uM NADH, 80 mM imidazole-HCl pH 6.9, 26 °C (FRT); read-out: Km^Pyr / (mM) / FRT
# [11] = system: T2, LDH (muscle lactate dehydrogenase); type: biochemical, Acanthocyclus albatrossis; details: 150 uM NADH, 80 mM imidazole-HCl pH 6.9, 9 °C (FRT); read-out: Km^Pyr / (mM) / FRT
# [12] = system: T1, LDH (muscle lactate dehydrogenase); type: biochemical, Aratus pisonii; details: 150 uM NADH, 80 mM imidazole-HCl pH 6.9, 26 °C (FRT); read-out: Km^Pyr / (mM) / FRT
smiles,measurement,setting,value
CC(=O)C(=O)O [pyruvate],Km,[1],0.17 ± 0.01 mM
same,Km,[2],0.5 mM
same,Km,[3],0.17 ± 0.01 mM
same,Km,[4],0.15 ± 0.01 mM
same,Km,[5],0.2 ± 0.01 mM
same,Km,[6],0.32 ± 0.03 mM
same,Km,[7],0.15 ± 0.02 mM
same,Km,[8],0.16 mM
same,Km,[9],0.1 mM
same,Km,[10],0.49 ± 0.05 mM
same,Km,[11],0.3 mM
same,Km,[12],0.11 mM
